# Results as given in publication PMC8715119, “Second-generation non-hematopoietic erythropoietin-derived peptide for neuroprotection” (Redox Biology, 2021).
# T1: Soluble recombinant human EPOR-Fc chimera protein (human, UniProt P19235 25-250)
# T1 construct: erythropoietin receptor (EPOR), human, soluble form fused to Fc; the discussion says the SPR analysis was based on only the extracellular domain of EPOR; also called erythropoietin receptor; source: bought: R&D Systems (#963-ER)
# T1 sequence (looked up): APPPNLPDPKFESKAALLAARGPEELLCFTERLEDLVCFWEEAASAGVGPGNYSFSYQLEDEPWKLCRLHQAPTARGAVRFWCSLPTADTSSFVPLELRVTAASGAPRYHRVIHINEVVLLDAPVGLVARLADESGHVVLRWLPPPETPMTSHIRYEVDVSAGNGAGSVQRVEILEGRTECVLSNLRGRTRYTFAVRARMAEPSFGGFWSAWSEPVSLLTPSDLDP
# B1: ML1 (peptide, UniProt P01588 118-140, looked up)
# peptide: LQLHVDKAVSGLRSLTTLLRALG
# notes: Monomeric peptide; also called ML1 prototype; source: synthetic peptide (solid-phase synthesis, monomer, >95% purity; bought: Peptron Inc.)
# What was measured:
# [1] = as previously reported; cited from earlier work
# Procedure: (§1) All peptides including ML1, ML1-c1, ML1-c2, ML1-c3, ML1-h1, ML1-h2, and ML1-h3 were synthesized as monomers by solid-phase peptide synthesis. […] To evaluate the purity and concentration of the peptides, LC/MSD (HP 1100 series) and HPLC analyses (SHIMADZU prominence HPLC) were performed. We obtained peptides having >95% purity and then dissolved with DMSO or water as a high ...
# EPOR = conditions: as previously reported; cited from earlier work
# Procedure: as §1
# EphB4 (Homo sapiens) = EphB4 (Homo sapiens) (UniProt P54760); conditions: cited from earlier work
# Sequence of EphB4 (Homo sapiens) (P54760 16-539): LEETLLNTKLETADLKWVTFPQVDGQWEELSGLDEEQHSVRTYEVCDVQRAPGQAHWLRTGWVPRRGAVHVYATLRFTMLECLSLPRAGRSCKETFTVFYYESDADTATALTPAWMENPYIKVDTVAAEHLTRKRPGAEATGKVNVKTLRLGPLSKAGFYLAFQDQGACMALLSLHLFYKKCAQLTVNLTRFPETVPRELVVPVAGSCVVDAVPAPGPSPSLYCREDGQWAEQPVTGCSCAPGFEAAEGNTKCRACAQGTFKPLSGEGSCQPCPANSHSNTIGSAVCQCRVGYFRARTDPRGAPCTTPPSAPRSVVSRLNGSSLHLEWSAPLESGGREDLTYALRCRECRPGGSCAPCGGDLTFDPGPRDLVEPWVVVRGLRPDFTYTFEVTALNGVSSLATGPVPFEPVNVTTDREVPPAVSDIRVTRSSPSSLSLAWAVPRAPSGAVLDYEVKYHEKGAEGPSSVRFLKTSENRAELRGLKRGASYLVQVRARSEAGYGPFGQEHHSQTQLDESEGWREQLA
# [2] = system: undifferentiated PC12 cells; assay: Cell proliferation (MTS) under low serum; type: cell-based, rat; conditions: 0.5% fetal bovine serum, 48 h, reEPO 10 IU/ml, peptides 10 ng/ml, n = 5, Fig. 4c
# Procedure: PC12 cells (#CRL-1721, ATCC, USA), a rat pheochromocytoma cell line derived from the adrenal medulla (#CRL-1721, ATCC, USA), were seeded on a dish, which was coated by poly L-lysine (0.01%; Sigma Chemical Co., USA), and grown in RPMI 1640 medium (#11875093, Gibco, USA), supplemented with 10% heat-inactivated horse serum (#26050088, Gibco, USA), 5% fetal bovine serum (FBS) (#SH30919.03, Hyclone, USA), and 1% penicillin/streptomycin at 37°C with 5% CO2. […]
# Cell viability was evaluated by 3-[(4,5-dimethylthiazol-2-yl)-5,3-carboxymethoxyphenyl]-2-(4-sulfophenyl)-2H tetrazolium, inner salt (MTS) reduction assay (CellTiter 96 Aqueous One Solution Cell Proliferation Assay, Promega, Madison, WI, USA). […] The intracellular soluble formazan produced by cellular reduction of the MTS was determined by recording the absorbance at 490 nm using a microplate reader (VersaMax, Molecular Devices, USA). Cell proliferation was also evaluated by the MTS assay. […] The next day, the initial cell number was counted; after 48 h, under low FBS concentration (0.5%), with or without reEPO and peptides, cell number was measured by the MTS assay.
# [3] = system: differentiated neuronal PC12 cells; assay: Cell viability (MTS) under H2O2-induced oxidative stress; type: cell-based, rat; conditions: 300 μM H2O2 for 24 h; peptides 1 ng/ml, reEPO 0.5 IU/ml; MTS; n = 3; Fig. 1c
# Procedure: (§2) PC12 cells (#CRL-1721, ATCC, USA), a rat pheochromocytoma cell line derived from the adrenal medulla (#CRL-1721, ATCC, USA), were seeded on a dish, which was coated by poly L-lysine (0.01%; Sigma Chemical Co., USA), and grown in RPMI 1640 medium (#11875093, Gibco, USA), supplemented with 10% heat-inactivated horse serum (#26050088, Gibco, USA), 5% fetal bovine serum (FBS) (#SH30919.03, Hyclone, USA), and 1% penicillin/streptomycin at 37°C with 5% CO2. For neuronal differentiation, PC12 cells were plated at a density of 1.25x10^3 cell/cm^2 into 96-well plates coated with collagen 1 (#354236, BD Biosciences, USA) and grown in RPMI 1640 medium supplemented with 50 ng/ml nerve growth factor (NGF) (BD Biosciences, USA) and 0.5% FBS for 10 days. The NGF-supplemented media was replaced with fresh media every 3 days during neuronal differentiation.
# Cell viability was evaluated by 3-[(4,5-dimethylthiazol-2-yl)-5,3-carboxymethoxyphenyl]-2-(4-sulfophenyl)-2H tetrazolium, inner salt (MTS) reduction assay (CellTiter 96 Aqueous One Solution Cell Proliferation Assay, Promega, Madison, WI, USA). Briefly, differentiated neuronal-PC12 cells were treated with H2O2 (300 μM) with or without reEPO and peptides for 24 h. The PC12 cells were washed with PBS; 20 ul MTS solution was added to each well with 100 μl PBS, and the cells were incubated for 3 h at 37°C and 5% CO2. The intracellular soluble formazan produced by cellular reduction of the MTS was determined by recording the absorbance at 490 nm using a microplate reader (VersaMax, Molecular Devices, USA). Cell proliferation was also evaluated by the MTS assay. Undifferentiated PC12 cells were seeded into a 96-well plate (5x10^4 cells/well). The next day, the initial cell number was counted; after 48 h, under low FBS concentration (0.5%), with or without reEPO and peptides, cell number was measured by the MTS assay.
# [4] = system: differentiated neuronal PC12 cells; assay: Cellular ROS level by H2DCFDA under H2O2; type: cell-based, rat; conditions: H2O2 for 6 h; H2DCFDA staining; n = 5; Fig. 4b
# Procedure: as §2
# The cellular ROS level was measured using 2′,7′-dichlorodihydrofluorescein diacetate (H2DCFDA) (#D399, Invitrogen, USA). The cells were incubated with 5 μM H2DCFDA in PBS for 30 min, washed with PBS, and then resuspended in the medium for 2 h. After treatment of H2O2 without or with reEPO, or peptide, we monitored the oxidative stress by measuring the fluorescence intensities of H2DCFDA by using excitation and emission wavelengths of 485 nm and 535 nm, respectively.
# [5] = target: T1, Soluble recombinant human EPOR-Fc …; assay: SPR; Reichert SR 7500 C; EPOR-Fc covalently immobilised by amine coupling on a carboxymethylated dextran chip; peptides at 5, 2.5 and 1.25 uM flowed at 5 ul/min, in duplicate; regeneration with 25 mM acetic acid; conditions: both partners purified
molecule,measurement,setting,value
AMELSGRTLGLILKLRQSATL [negative control peptide],Effect on cell survival and proliferation,[1],unaffected cell survival and proliferation
same,Binding to EPOR,EPOR,did not bind to EPOR
EPO (from UniProt P01588),Kd,EphB4 (Homo sapiens),880 nM
ML1: monomeric peptide spanning 118Leu-140Gly of helix C of EPO; prototype for second-generation EPO-derived peptide (LQLHVDKAVSGLRSLTTLLRALG),Cell proliferation (cell number),[2],did not induce proliferation
same,Cell viability (neuroprotective effect) against H2O2,[3],a better neuroprotective effect than reEPO
same,Level of reactive oxygen species (ROS) induced by H2O2,[4],decreased the levels of reactive oxygen species (ROS)
ML4: monomeric peptide spanning 127Ser-140Gly of helix C of EPO,Cell viability (neuroprotective effect) against H2O2,[3],showed a neuroprotective effect
B1,binding result,[5],binds
